Results from patent publication US20240308995A1, “O-GLYCOPROTEIN-2-ACETAMIDO-2-DEOXY-3-D-GLUCOPYRANOSIDASE INHIBITORS” (BIOGEN MA INC., priority 2018, published 2024).
Marks after values point to notes of the source that are not given here. Values belong to the compound of their own block, whether it stands above or below them.

Legend:
P-gp (MDR1) = assay: MDR1-MDCK Efflux Ratio Assay; type: in vitro ADME; conditions: dog, MDCK-MDR1, pH 7.4, MDR1-MDCK cells, 2 hr, pH 7.4; read-out: MDR1-MDCK Efflux Ratio (B-A/A-B)
Summary of the method: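 Bidirectional (apical↔basolateral) transport across confluent MDR1-MDCK monolayers in HBSS/10 mM HEPES pH 7.4, receiver buffer with 1% BSA; 2 hr at 37° C, 5% CO2. Donor sampled at 0 and 120 min, receiver at 120 min, quantified by LC-MS/MS in triplicate. Papp, efflux ratio and percent recovery calculated.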

[1] = target: Recombinant full length human OGA enzyme (Homo sapiens (Human), UniProt O60502); assay: OGA Enzyme Inhibition Biochemical Assay; conditions: 1 nM OGA, 100 μM 4-MUGlcNAc, pH 6.4
Summary of the method: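 Full-length recombinant human OGA with fluorogenic 4-MUGlcNAc in McIlvaine buffer pH 6.4, 0.01% BSA; 90 min at room temperature, glycine pH 10 quench, fluorescence Ex 355/Em 460 nm. 10-point, 4-fold dilution from 20 μM; 4-parameter variable-slope fit.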

[2] = Rat Liver Microsome Stability Assay; type: in vitro ADME
[3] = target: OGA (S400 O-GLCNAC), HEK-293T cells transfected with Tau-V5 (Homo sapiens (Human), UniProt O60502); assay: Cellular OGA-Tau MSD Assay; type: cell-based; conditions: HEK-293T cells, Tau-S400-GlcNAc MSD readout
Summary of the method: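 HEK-293T cells transfected with OGA and Tau-V5 plasmids were treated overnight at 37° C with a 10-point, 3-fold titration from 1 uM. Lysates went onto V5-antibody MSD plates to capture Tau, probed with a Tau O-GlcNAc antibody and read by electrochemiluminescence; IC50 from a 4-parameter fit.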

[4] = rat liver microsomes, 1 uM compound

Recombinant full length human OGA enzyme, sequence (O60502 whole entry): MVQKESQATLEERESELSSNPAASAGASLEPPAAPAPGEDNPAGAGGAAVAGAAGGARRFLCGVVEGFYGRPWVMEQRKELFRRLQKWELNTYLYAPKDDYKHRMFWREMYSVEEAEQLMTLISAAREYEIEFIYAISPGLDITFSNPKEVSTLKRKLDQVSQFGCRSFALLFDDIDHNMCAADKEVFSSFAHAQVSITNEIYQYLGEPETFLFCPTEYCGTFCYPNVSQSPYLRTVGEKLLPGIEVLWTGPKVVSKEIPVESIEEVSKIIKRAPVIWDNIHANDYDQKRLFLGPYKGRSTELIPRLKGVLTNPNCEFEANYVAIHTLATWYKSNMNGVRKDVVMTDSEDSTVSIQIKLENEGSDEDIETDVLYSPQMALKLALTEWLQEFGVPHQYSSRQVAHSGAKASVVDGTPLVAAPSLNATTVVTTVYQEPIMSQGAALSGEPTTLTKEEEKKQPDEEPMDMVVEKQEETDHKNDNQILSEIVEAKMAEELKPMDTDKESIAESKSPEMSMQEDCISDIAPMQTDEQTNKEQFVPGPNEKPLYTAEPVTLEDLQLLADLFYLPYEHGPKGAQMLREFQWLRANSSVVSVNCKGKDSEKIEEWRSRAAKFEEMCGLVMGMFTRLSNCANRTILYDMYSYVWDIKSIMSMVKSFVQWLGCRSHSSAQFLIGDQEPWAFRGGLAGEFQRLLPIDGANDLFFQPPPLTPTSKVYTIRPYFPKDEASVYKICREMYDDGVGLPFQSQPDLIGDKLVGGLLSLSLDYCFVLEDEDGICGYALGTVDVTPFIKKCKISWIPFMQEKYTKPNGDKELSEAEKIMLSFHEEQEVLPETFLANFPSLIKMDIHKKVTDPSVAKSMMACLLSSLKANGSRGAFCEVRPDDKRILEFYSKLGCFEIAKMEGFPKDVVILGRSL
OGA (S400 O-GLCNAC), HEK-293T cells transfected with Tau-V5, sequence (O60502 whole entry): as above

Compound: CC(=O)Nc1nc(F)c(CN2C[C@H](Oc3ncc(F)cn3)C[C@@H]2C)s1 [Example 1-112, N-(4-fluoro-5-(((2S,4R)-4-((5-fluoropyrimidin-2-yl)oxy)-2-methylpyrrolidin-1-yl)methyl)thiazol-2-yl)acetamide]
efflux ratio at 2 h (P-gp (MDR1)): 5.3 | IC50 [1]: < 1 nM | RLM % Qh (%) [2, 4]: 45% | IC50 [3]: 1 nM

Compound: COc1nc(C)cc(O[C@@H]2C[C@H](C)N(Cc3cnc(NC(C)=O)s3)C2)n1 [Example 1-75, N-(5-(((2S,4R)-4-((2-methoxy-6-methylpyrimidin-4-yl)oxy)-2-methylpyrrolidin-1-yl)methyl)thiazol-2-yl)acetamide]
efflux ratio at 2 h (P-gp (MDR1)): 6.7 | IC50 [1]: < 1 nM | RLM % Qh (%) [2, 4]: 58% | IC50 [3]: 2 nM

Compound: CC(=O)Nc1nc(F)c(CN2C[C@H](Oc3ncccn3)C[C@@H]2C)s1 [Example 1-93, N-(4-fluoro-5-(((2S,4R)-2-methyl-4-(pyrimidin-2-yloxy)pyrrolidin-1-yl)methyl)thiazol-2-yl)acetamide]
efflux ratio at 2 h (P-gp (MDR1)): 14.3 | IC50 [1]: < 1 nM | RLM % Qh (%) [2, 4]: 42% | IC50 [3]: 2 nM

Compound: COc1cncc(O[C@@H]2C[C@H](C)N(Cc3sc(NC(C)=O)nc3F)C2)n1 [Example 1-88, N-(4-fluoro-5-(((2S,4R)-4-((6-methoxypyrazin-2-yl)oxy)-2-methylpyrrolidin-1-yl)methyl)thiazol-2-yl)acetamide]
efflux ratio at 2 h (P-gp (MDR1)): 4.7 | IC50 [1]: < 1 nM | RLM % Qh (%) [2, 4]: 98% | IC50 [3]: 1 nM

Compound: CC(=O)Nc1nc(F)c(CN2C[C@@H](Oc3cc(C)nc(C)c3)C[C@@H]2C)s1 [Example 1-52, N-(5-(((2S,4S)-4-((2,6-dimethylpyridin-4-yl)oxy)-2-methylpyrrolidin-1-yl)methyl)-4-fluorothiazol-2-yl)acetamide]
efflux ratio at 2 h (P-gp (MDR1)): 12.9 | IC50 [1]: 33 nM | RLM % Qh (%) [2, 4]: 76% | IC50 [3]: 55 nM

Compound: COc1ccc(O[C@@H]2C[C@H](C)N(Cc3sc(NC(C)=O)nc3F)C2)nc1 [Example 1-98, N-(4-fluoro-5-(((2S,4R)-4-((5-methoxypyridin-2-yl)oxy)-2-methylpyrrolidin-1-yl)methyl)thiazol-2-yl)acetamide]
efflux ratio at 2 h (P-gp (MDR1)): 2.1 | IC50 [1]: < 1 nM | RLM % Qh (%) [2, 4]: 93% | IC50 [3]: 1 nM

Compound: COCCOc1cc(O[C@@H]2C[C@H](C)N(Cc3sc(NC(C)=O)nc3F)C2)ncn1 [Example 1-23, N-(4-fluoro-5-(((2S,4R)-4-((6-(2-methoxyethoxy)pyrimidin-4-yl)oxy)-2-methylpyrrolidin-1-yl)methyl)thiazol-2-yl)acetamide]
efflux ratio at 2 h (P-gp (MDR1)): 7.7 | IC50 [1]: < 1 nM | RLM % Qh (%) [2, 4]: 31% | IC50 [3]: 3 nM

Compound: CC(=O)Nc1nc(F)c(CN2C[C@@H](Oc3cc(C)nc(C)c3)C[C@H]2C)s1 [Example 1-53, N-(5-(((2R,4S)-4-((2,6-dimethylpyridin-4-yl)oxy)-2-methylpyrrolidin-1-yl)methyl)-4-fluorothiazol-2-yl)acetamide]
efflux ratio at 2 h (P-gp (MDR1)): 21.8 | IC50 [1]: 1700 nM | RLM % Qh (%) [2, 4]: 26% | IC50 [3]: > 1000 nM

Compound: CC(=O)Nc1nc(F)c(CN2C[C@H](Oc3cnc(C)cn3)C[C@@H]2C)s1 [Example 1-108, N-(4-fluoro-5-(((2S,4R)-2-methyl-4-((5-methylpyrazin-2-yl)oxy)pyrrolidin-1-yl)methyl)thiazol-2-yl)acetamide]
efflux ratio at 2 h (P-gp (MDR1)): 3.4 | IC50 [1]: < 1 nM | RLM % Qh (%) [2, 4]: 79% | IC50 [3]: 2 nM

Compound: CC(=O)Nc1nc(F)c(CN2C[C@H](Oc3ccc(F)nc3)C[C@@H]2C)s1 [Example 1-85, N-(4-fluoro-5-(((2S,4R)-4-((6-fluoropyridin-3-yl)oxy)-2-methylpyrrolidin-1-yl)methyl)thiazol-2-yl)acetamide]
efflux ratio at 2 h (P-gp (MDR1)): 3.8 | IC50 [1]: < 1 nM | RLM % Qh (%) [2, 4]: 60% | IC50 [3]: 2 nM

Compound: COc1cc(O[C@@H]2C[C@H](C)N(Cc3sc(NC(C)=O)nc3Cl)C2)ncn1 [Example 1-46, N-(4-chloro-5-(((2S,4R)-4-((6-methoxypyrimidin-4-yl)oxy)-2-methylpyrrolidin-1-yl)methyl)thiazol-2-yl)acetamide]
efflux ratio at 2 h (P-gp (MDR1)): 3.2 | IC50 [1]: 1 nM | RLM % Qh (%) [2, 4]: 55% | IC50 [3]: 38 nM

Compound: CC(=O)Nc1nc(F)c(CN2CCC[C@@H](Oc3cc(C)nc(C)c3)C2)s1 [Example 1-55, (R)—N-(5-((3-((2,6-dimethylpyridin-4-yl)oxy)piperidin-1-yl)methyl)-4-fluorothiazol-2-yl)acetamide]
efflux ratio at 2 h (P-gp (MDR1)): 19 | IC50 [1]: 1.1 nM | RLM % Qh (%) [2, 4]: 85% | IC50 [3]: 13 nM

Compound: CC(=O)Nc1nc(F)c(CN2C[C@H](Oc3cc(N4CCOCC4)ccn3)C[C@@H]2C)s1 [Example 1-143, N-(4-fluoro-5-(((2S,4R)-2-methyl-4-((4-morpholinopyridin-2-yl)oxy)pyrrolidin-1-yl)methyl)thiazol-2-yl)acetamide]
efflux ratio at 2 h (P-gp (MDR1)): 25.6 | IC50 [1]: < 1 nM | RLM % Qh (%) [2, 4]: 75% | IC50 [3]: 4 nM

Next, values leading:

efflux ratio at 2 h (P-gp (MDR1)): 3.9 | IC50 [1]: 39 nM | RLM % Qh (%) [2, 4]: 61% | IC50 [3]: 81 nM
Compound: COc1cc(O[C@@H]2CCCN(Cc3cnc(NC(C)=O)s3)C2)ncn1 [Example 1-42, (R)—N-(5-((3-((6-methoxypyrimidin-4-yl)oxy)piperidin-1-yl)methyl)thiazol-2-yl)acetamide]

efflux ratio at 2 h (P-gp (MDR1)): 9.7 | IC50 [1]: < 1 nM | RLM % Qh (%) [2, 4]: 50% | RLM % Qh (%) ([2]; repeated assay, value marked with asterisk (*)): 51* % | IC50 [3]: 1 nM
Compound: CC(=O)Nc1ncc(CN2C[C@H](Oc3ccc(C#N)cn3)C[C@@H]2C)s1 [Example 1-16, N-(5-(((2S,4R)-4-((5-cyanopyridin-2-yl)oxy)-2-methylpyrrolidin-1-yl)methyl)thiazol-2-yl)acetamide]

efflux ratio at 2 h (P-gp (MDR1)): 5.2 | IC50 [1]: < 1 nM | RLM % Qh (%) [2, 4]: 35% | IC50 [3]: 2 nM
Compound: [2H]C([2H])([2H])C(=O)Nc1ncc(CN2C[C@H](Oc3cc(OC)ncn3)C[C@@H]2C)s1 (single isomer, unassigned) [Example 1-156]

efflux ratio at 2 h (P-gp (MDR1)): 6.9 | IC50 [1]: < 1 nM | RLM % Qh (%) [2, 4]: 81% | IC50 [3]: 1 nM
Compound: COc1cc(O[C@H]2CC[C@H](C)N(Cc3cnc(NC(C)=O)s3)C2)ncn1 [Example 1-43, N-(5-(((2S,5S)-5-((6-methoxypyrimidin-4-yl)oxy)-2-methylpiperidin-1-yl)methyl)thiazol-2-yl)acetamide]

efflux ratio at 2 h (P-gp (MDR1)): 3.8 | IC50 [1]: < 1 nM | RLM % Qh (%) [2, 4]: 48% | IC50 [3]: 2 nM
Compound: CCOc1cc(O[C@@H]2C[C@H](C)N(Cc3cnc(NC(C)=O)s3)C2)ncn1 [Example 1-126, N-(5-(((2S,4R)-4-((6-ethoxypyrimidin-4-yl)oxy)-2-methylpyrrolidin-1-yl)methyl)thiazol-2-yl)acetamide]

efflux ratio at 2 h (P-gp (MDR1)): 53.4 | IC50 [1]: < 1 nM | RLM % Qh (%) [2, 4]: 70% | IC50 [3]: 1 nM
Compound: CC(=O)Nc1ncc(CN2C[C@H](Oc3cc(NC4CCC4)ncn3)C[C@@H]2C)s1 [Example 1-134, N-(5-(((2S,4R)-4-((6-(cyclobutylamino)pyrimidin-4-yl)oxy)-2-methylpyrrolidin-1-yl)methyl)thiazol-2-yl)acetamide]

efflux ratio at 2 h (P-gp (MDR1)): 11.7 | IC50 [1]: 2.4 nM | RLM % Qh (%) [2, 4]: 48% | IC50 [3]: 12 nM
Compound: CC(=O)Nc1ncc(CN2C[C@H](Oc3cc(C(F)F)ncn3)C[C@@H]2C)s1 [Example 1-18, N-(5-(((2S,4R)-4-((6-(difluoromethyl)pyrimidin-4-yl)oxy)-2-methylpyrrolidin-1-yl)methyl)thiazol-2-yl)acetamide]

efflux ratio at 2 h (P-gp (MDR1)): 4.8 | IC50 [1]: < 1 nM | RLM % Qh (%) [2, 4]: 31% | IC50 [3]: 2 nM
Compound: COc1cc(O[C@@H]2C[C@H](C)N(Cc3cnc(NC(C)=O)s3)C2)ncn1 [Example 1-1, N-(5-(((2S,4R)-4-((6-methoxypyrimidin-4-yl)oxy)-2-methylpyrrolidin-1-yl)methyl)thiazol-2-yl)acetamide]

efflux ratio at 2 h (P-gp (MDR1)): 6 | IC50 [1]: 2.6 nM | RLM % Qh (%) [2, 4]: 65% | IC50 [3]: 25 nM
Compound: CC(=O)Nc1ncc(CN2C[C@H](Oc3cc(C(C)=O)ncn3)C[C@@H]2C)s1 [Example 1-76]

efflux ratio at 2 h (P-gp (MDR1)): 38.6 | IC50 [1]: < 1 nM | RLM % Qh (%) [2, 4]: 16% | IC50 [3]: 1 nM
Compound: CC(=O)Nc1ncc(CN2C[C@H](Oc3ccc(F)nn3)C[C@@H]2C)s1 [Example 1-83, N-(5-(((2S,4R)-4-((6-fluoropyridazin-3-yl)oxy)-2-methylpyrrolidin-1-yl)methyl)thiazol-2-yl)acetamide]

efflux ratio at 2 h (P-gp (MDR1)): 25.5 | IC50 [1]: < 1 nM | RLM % Qh (%) [2, 4]: 65% | IC50 [3]: 1 nM
Compound: CC(=O)Nc1ncc(CN2C[C@H](Oc3cc(N4CCCC4)ncn3)C[C@@H]2C)s1 [Example 1-129, N-(5-(((2S,4R)-2-methyl-4-((6-(pyrrolidin-1-yl)pyrimidin-4-yl)oxy)pyrrolidin-1-yl)methyl)thiazol-2-yl)acetamide]
